# Results: US20240252651A1, “METHOD OF DELIVERING NUCLEIC ACIDS INTO CELLS” (GUANGZHOU LIDE BIOMEDICINE TECHNOLOGY CO., LTD., priority 2021, published 2024)
# “Also recorded” adds a separate entry of the source.
# Tests used:
# A549 cells (A549-Luc) = test: siRNA transfection, luciferase gene silencing in A549-Luc cells; type: cell-based, human; conditions: final siRNA 100 nM, material 0.5 to 3 μg/well, 48 h, FIG. 10
# Method: In this experiment, with I2R2C18-1A1, I2R3C18-1A1, I2R2C18-2A1, and I2R3C18-2A1 as representative cationic lipid analog materials, siRNA transfection and delivery effects of the cationic lipid analog materials were detected in A549 cells (A549-Luc). A specific operation method was as follows:
# Luciferase-expressing A549 cells (A549-Luc) were inoculated in a 96-well plate and cultured in an incubator for 12 h; each of different materials (0.5 μg/well to 3 μg/well) was mixed with siRNA in 40 μL of a sodium acetate buffer (25 mM, pH 5.2), and resulting mixtures each were allowed to stand for 10 min and then diluted with 460 μL of an Opti-MEM medium to obtain siRNA-loaded complex particle solutions (final siRNA concentration was 100 nM); a medium for the A549-Luc cells in the plate was removed, then the A549-Luc cells were washed once with PBS, and the complex particle solutions each were added in a volume of 125 μL; the cells were cultured for 48 h, then a resulting culture supernatant was discarded, and the cells were fully lysed; and a substrate was added at 50 μl/well, and an expression level of luciferase was detected by a multi-mode microplate reader.
# Hela cells [1] = test: Transfection of GFP-expressing plasmid DNA in Hela cells (flow cytometer); type: cell-based, human; conditions: plasmid DNA 0.5 μg/well, material 0.25 to 8 μg/well (dosages per FIG. 4), 24 h
# Method: In this experiment, with GFP-expressing plasmid DNA as a reporter gene, a gene transfection efficiency of a cationic lipid analog material in Hela cells was detected. A specific method was as follows:
# Hela cells were inoculated in a 24-well plate and cultured in an incubator for 12 h; each of different cationic lipid analog materials (0.25 μg/well to 8 μg/well) was mixed with GFP-expressing plasmid DNA (0.5 μg/well) in 40 μL of a sodium acetate buffer (25 mM, pH 5.2), and resulting mixtures each were allowed to stand for 10 min and then diluted with 460 μL of an Opti-MEM medium to obtain plasmid DNA-loaded cationic lipid analog complex particle solutions; a medium for the Hela cells in the plate was removed, then the HeLa cells were washed once with PBS, and the complex particle solutions were added; and the cells were cultured for 24 h, and then a plasmid DNA transfection efficiency in cells was analyzed by a flow cytometer. A commercial gene transfection reagent Lipofectamine 2000 was adopted as a positive control.
# Hela cells [2] = test: Transfection of luciferase-expressing plasmid DNA in HeLa cells (luciferase expression); type: cell-based, human; conditions: plasmid DNA 0.5 μg, 24 h, luciferase expression level, FIG. 5
# Method: In this example, with luciferase-expressing plasmid DNA as a reporter gene, a gene transfection efficiency of a cationic lipid analog material in HeLa cells was detected. A specific operation method was as follows: Hela cells were inoculated in a 96-well plate and cultured in an incubator for 12 h; each of different cationic lipid analog materials was mixed with luciferase-expressing plasmid DNA (0.5 μg) in 40 μL of a sodium acetate buffer (25 mM, pH 5.2), and resulting mixtures each were allowed to stand for 10 min and then diluted with 460 μL of an Opti-MEM medium to obtain plasmid DNA-loaded cationic lipid analog complex particle solutions; a medium for the Hela cells in the plate was removed, then the Hela cells were washed once with PBS, and the complex particle solutions were added in a volume of 125 μL; the cells were cultured for 24 h, then a resulting culture supernatant was discarded, and the cells were fully lysed; and a substrate was added at 50 μl/well, and an expression level of luciferase was detected by a multi-mode microplate reader.
# [3] = tested on: DC2.4, RAW 264.7, A549, BxPC3, and HeLa cells; test: Transfection of GFP-expressing plasmid DNA in different types of cells (LSCM); type: cell-based, human, mouse; conditions: material 0.5 to 3 μg/well, plasmid DNA 0.5 μg/well, 24 h, FIG. 6
# Method: In this experiment, with I2R3C18-1A1 as a representative cationic lipid analog material and GFP-expressing plasmid DNA as a reporter gene, transfection effects of the cationic lipid analog material at different dosages (0.5 μg/well to 3 μg/well) for plasmid DNA (0.5 μg/well) in different types of cells were investigated. A commercial gene transfection reagent Lipofectamine 2000 was adopted as a positive control. In this experiment, a GFP-expressing plasmid DNA-loaded I2R3C18-1A1 particle complex solution was prepared with reference to the method in Example 8 and added to DC2.4, RAW 264.7, A549, BxPC3, and HeLa cells respectively, these cells were cultured for 24 h, and then a transfection efficiency of plasmid DNA in cells was observed by LSCM.
# DC 2.4 cells = test: Transfection of eGFP-mRNA in DC 2.4 cells (FCM and LSCM); type: cell-based, mouse; conditions: mRNA 0.2 μg/well, material 0.25 to 2 μg/well (dosages per FIG. 7), 24 h, FIG. 7-9
# Method: In this experiment, with eGFP-mRNA as model mRNA, an mRNA transfection efficiency of a cationic lipid analog material in DC 2.4 cells was detected. A specific operation method was as follows:
# DC 2.4 cells were inoculated in a 48-well plate and cultured in an incubator for 12 h; each of different cationic lipid analog materials (0.25 μg/well to 2 μg/well) was mixed with cGFP-expressing mRNA (0.2 μg/well) in 20 μL of a sodium acetate buffer (25 mM, pH 5.2), and resulting mixtures each were allowed to stand for 10 min and then diluted with 230 μL of a Opti-MEM medium to obtain mRNA-loaded complex particle solutions; a medium for the […] were washed once with PBS, and the complex particle solutions were added; and the cells were cultured for 24 h, an mRNA transfection efficiency in cells was observed by FCM and LSCM. A commercial gene transfection reagent Lipofectamine 2000 was adopted as a positive control.
# Hela cells [4] = test: Cytotoxicity by MTT experiment in Hela cells; type: cell-based, human; conditions: material 1 μg/ml, 4 h exposure then 20 h culture, FIG. 11
# Method: In this experiment, I2R2C16A1, I2R2C17A1, I2R2C18A1, I2R2C19A1, and I2R2C20A1 with high transfection efficiencies were selected as representative cationic lipid analog materials, and the toxicity of cationic lipid analogs for Hela cells was detected by an MTT experiment. A specific experimental method was as follows: HeLa cells were inoculated in a 96-well plate and cultured in an incubator for 12 h, then a medium was removed, and a cationic lipid analog material was added at 1 μg/ml; the cells were cultured for 4 h, then the material was washed away and replaced with DMEM; and the cells were cultured for 20 h, and finally cell viability was detected by MTT.
compound,measurement,setting,value
CCCCCCCC/C=C\CCCCCCCC(=O)N(CCCN(CC)CC)C(C(=O)NCCOCCOCCNC(=O)C(C(C)C)N(CCCN(CC)CC)C(=O)CCCCCCC/C=C\CCCCCCCC)C(C)C (stereo not drawn) [I2R3C18-1A1],gene silencing efficiency as a function of material dosage,A549 cells (A549-Luc),increases with the increase of a dosage
same,"siRNA transfection, silencing of the luciferase reporter gene",A549 cells (A549-Luc),efficient gene silencing; also recorded: can transfect siRNA into cells to specifically silence the expression of the luciferase reporter gene
same,"transfection efficiency of GFP-expressing plasmid DNA, compared with commercial transfection reagent Lipofectamine 2000",Hela cells [1],reaches or is higher than; also recorded: equivalent to or higher than
same,"transfection efficiency of luciferase-expressing plasmid DNA, compared with Lipofectamine 2000",Hela cells [2],equivalent to or higher than
same,transfection of GFP-expressing plasmid DNA in different types of cells,[3],can transfect GFP-expressing plasmid DNA into tumor cells and immune cells
same,"mRNA transfection efficiency (eGFP-mRNA), compared with Lipofectamine 2000",DC 2.4 cells,high transfection efficiency; also recorded: equivalent to or higher than
CCCCCCCCCCCCCCCCCCCC(=O)N(CCCN(C)C)C(C(=O)NCCOCCOCCNC(=O)C(C(C)C)N(CCCN(C)C)C(=O)CCCCCCCCCCCCCCCCCCC)C(C)C (stereo not drawn) [I2R2C20A1],cytotoxicity (cell viability by MTT),Hela cells [4],low cytotoxicity
CCCCC/C=C\C/C=C\CCCCCCCC(=O)N(CCCN(C)C)C(C(=O)NCCOCCOCCNC(=O)C(C(C)C)N(CCCN(C)C)C(=O)CCCCCCC/C=C\C/C=C\CCCCC)C(C)C (stereo not drawn) [I2R2C18-2A1],gene silencing efficiency as a function of material dosage,A549 cells (A549-Luc),increases with the increase of a dosage
same,"siRNA transfection, silencing of the luciferase reporter gene",A549 cells (A549-Luc),efficient gene silencing; also recorded: can transfect siRNA into cells to specifically silence the expression of the luciferase reporter gene
same,"transfection efficiency of GFP-expressing plasmid DNA, compared with commercial transfection reagent Lipofectamine 2000",Hela cells [1],reaches or is higher than; also recorded: equivalent to or higher than
same,"transfection efficiency of luciferase-expressing plasmid DNA, compared with Lipofectamine 2000",Hela cells [2],equivalent to or higher than
same,"mRNA transfection efficiency (eGFP-mRNA), compared with Lipofectamine 2000",DC 2.4 cells,high transfection efficiency; also recorded: equivalent to or higher than
CCCCCCCCCCCCCCCCCC(=O)N(CCCN(C)C)C(C(=O)NCCOCCOCCNC(=O)C(C(C)C)N(CCCN(C)C)C(=O)CCCCCCCCCCCCCCCCC)C(C)C (stereo not drawn) [I2R2C18A1],cytotoxicity (cell viability by MTT),Hela cells [4],low cytotoxicity
same,"mRNA transfection efficiency (eGFP-mRNA), compared with Lipofectamine 2000",DC 2.4 cells,high transfection efficiency; also recorded: equivalent to or higher than
CCCCCCCCCCCCCCCC(=O)N(CCCN(C)C)C(C(=O)NCCOCCOCCNC(=O)C(C(C)C)N(CCCN(C)C)C(=O)CCCCCCCCCCCCCCC)C(C)C (stereo not drawn) [I2R2C16A1],cytotoxicity (cell viability by MTT),Hela cells [4],low cytotoxicity
same,"transfection efficiency of GFP-expressing plasmid DNA, compared with commercial transfection reagent Lipofectamine 2000",Hela cells [1],reaches or is higher than; also recorded: equivalent to or higher than
same,"transfection efficiency of luciferase-expressing plasmid DNA, compared with Lipofectamine 2000",Hela cells [2],equivalent to or higher than
same,"mRNA transfection efficiency (eGFP-mRNA), compared with Lipofectamine 2000",DC 2.4 cells,high transfection efficiency; also recorded: equivalent to or higher than
